Measurements: patent publication US20160238590A1, “COMPOSITIONS AND METHODS RELATED TO OAT SENSITIVITY” (IMMUSANT, INC., priority 2013, published 2016)
Where no end group is shown, it is not given here. [ ]: non-standard residue; d: D form. pGlu = O=C1CC[C@@H](C(=O)O)N1

How the values were obtained:
Type in all cases: cell-based, human
PBMC [1] = test: IFN-γ ELISpot on PBMC of CD patients after 3-day barley challenge; details: after barley challenge
Excerpt: (§1) Australian Caucasian HLA-DQ2.5^+ and/or HLA-DQ8^+ CD subjects were recruited by advertisement in the Coeliac Society of Victoria newsletter and all had biopsy-proven CD conforming to ESPGHAN criteria. Patients had been on strict gluten free diet for at least 4 weeks prior to commencing grain challenge. Patients underwent 3-day grain challenge with oats, barley, or combined wheat, barley, and rye muffins, and 6 days after commencement, blood was collected. Day 0 responses were not observed in the selection of patients tested, as described previously^8.
(§2) Oats challenge consisted of 100 g dry weight daily of one of three commercial brands of oats: one not tested for wheat contamination (Uncle Toby's; Oats #1), and two shown by R5 ELISA to contain less than 20 ppm wheat gluten (Tilquhilie Pudding; Oats #2 and Freedom Food; Oats #3). Barley challenge consisted of pearl barley (Ward McKenzie) cooked into a risotto (150 g dry weight daily) and the wheat challenge consisted of four 50 g slices of wheat bread daily (Baker's Delight white loaf cut to toasting thickness). The combined wheat, barley, and rye challenge consisted of muffins baked with wheat flour (White Wings), barley flour (Four Leaf Milling), and rye flour (Four Leaf Milling; 22-25 g dry weight each daily). A symptom diary based on a […] Likert scale was completed by participants daily from baseline until day 6.
(§3) Two avenin peptide libraries were utilized for epitope screening. These were designed using avenin sequences from GenBank and a customized algorithm, as previously described^9. The initial library consisted of 199 screening-grade 20 mers including all possible 12 mers (Mimotopes). This library was screened with and without tTG pre-treatment. The second library consisted of additional avenin sequences that were synthesized with glutamate substitution at sites predicted to be deamidated by published algorithms^10, 11 removing the requirement for tTG treatment. This library contained 369 screening-grade 20 mers, including all possible 12 mers (Pepscan). The second round avenin library contained wild-type and deamidated versions of the most immunogenic sequences (25 high quality 16 mers from Mimotopes). High quality peptides containing previously described immunogenic sequences from wheat, barley, and rye were used to test for cross-reactivity^8 (Pepscan). High quality hordein and avenin peptides for TCC testing and biochemical studies were ordered from Pepscan, Mimotopes, or GL Biochem.
(§4) Peripheral blood mononuclear cells (PBMC) were isolated from heparinized whole blood using Ficoll-Paque™ Plus density-gradient centrifugation (GE Healthcare). IFN-γ ELISpot (Mabtech) was set up as previously described^8.

Patient 14 TCC-01 = test: IFN-γ ELISpot with T cell clone; details: TCC Patient 14 TCC-01 (Table 5); mean no antigen 11.3, high background, SFU >25 considered as positive responses
Description: as §4
(§5) Isolation of TCC from CD patients was carried out as previously described^8. Briefly, CFSE-labeled PBMC were incubated with antigen for 7 days in IMDM supplemented with 5% heat-inactivated pooled human serum (PHS), 2 mM GlutaMAX™, 100 μM MEM non-essential amino acids (both from Gibco, Invitrogen), and 50 μM 2-mercaptoethanol (Sigma). Proliferated cells were single-cell sorted into 96-well plates containing IL-2, IL-4, anti-CD3 mAb, irradiated feeder cells (allogeneic PBMC and JY-EBV). TCC were expanded and maintained in IL-2 and IL-4 and tested for specificity by ELISpot with irradiated HLA-matched PBMC as antigen-presenting cells. Expanded clones were tested for HLA-DQ restriction, TCR Vbeta usage, and with lysine scans to work out minimal epitopes. See Table 1 below for TCC and epitope information.

Patient 2 TCC-01 = test: IFN-γ ELISpot with T cell clone; details: TCC Patient 2 TCC-01 (Table 5); mean no antigen 1.1
Description: as §4, §5

Patient 6 TCC-01 = test: IFN-γ ELISpot with T cell clone; details: TCC Patient 6 TCC-01 (Table 5); mean no antigen 2
Description: as §4, §5

PBMC [2] = test: IFN-γ ELISpot on PBMC of CD patients on day 6 after 3-day oats challenge; details: after 3-day oats challenge
Excerpt: as §1, §2, §3, §4

Which “IFN-γ ELISpot response (raw SFU)” value (PBMC [1]; Patient 1, peptide 50 μg/ml) does the source give for “AQFDPSEQYQPYPEQQQPIL [avenin library peptide]” here?
Its value is 35 SFU.

What about the “significant SFU as a percentage of maximal peptide SFU” value (shortened to “significant SFU as a percentage”) (PBMC [1]; Patient 1, peptide 50 μg/ml) of the same substance?
The value was “^^ (^^: 10-20%)”.

What about the “IFN-γ ELISpot response (raw SFU)” value (PBMC [1]; Patient 2, peptide 50 μg/ml) of the same substance?
The value was 159 SFU.

What about the “significant SFU as a percentage” value (PBMC [1]; Patient 2, peptide 50 μg/ml) of the same substance?
Its value is “*** (***: >70%)”.

And the “IFN-γ ELISpot response (raw SFU)” value (PBMC [1]; Patient 3, peptide 50 μg/ml)?
Its value is 24 SFU.

And the “significant SFU as a percentage” value (PBMC [1]; Patient 3, peptide 50 μg/ml)?
The value was “^^ (^^: 10-20%)”.

How did the “IFN-γ ELISpot response (raw SFU)” value (Patient 14 TCC-01) turn out when “PEQPFPEQPQPYPQQP [barley peptide, AFM77740.1 (25-40) [Q26 to E, Q31 to E]]” was run?
Its value is 66 SFU.

What about the “IFN-γ ELISpot response (raw SFU)” value (Patient 2 TCC-01) of the same substance?
Its value is 202 SFU.

What about the “IFN-γ ELISpot response (raw SFU)” value (Patient 6 TCC-01) of the same substance?
Its value is 73 SFU.

What does the source list for “pEQPFPEQPFPEQPQPY ([pGlu]QPFPEQPFPEQPQPY) [barley peptide, AFM77740.1 (21-36) [Q21 to pyroglutamate, Q26 to E, Q31 to E]]”?
IFN-γ ELISpot response (raw SFU) (Patient 14 TCC-01): 27 SFU; IFN-γ ELISpot response (raw SFU) (Patient 2 TCC-01): 229 SFU; IFN-γ ELISpot response (raw SFU) (Patient 6 TCC-01): 64 SFU

What does the source list for “QPYPEQEQPILEEELLLQQQ [oats avenin peptide, CBL51491.1 (22-41) [Q28, Q33, Q34, Q35 to E]; one of two coded A01]”?
IFN-γ ELISpot response (raw SFU) (Patient 2 TCC-01): 275 SFU; IFN-γ ELISpot response (raw SFU) (Patient 6 TCC-01): 16 SFU

“SEQYQPYPEQEQPFLQEQPL [avenin library peptide]” was tested. Which “IFN-γ ELISpot response (raw SFU)” value (PBMC [1]; Patient 1, peptide 50 μg/ml) did it give?
Its value is 122 SFU.

What about the “significant SFU as a percentage” value (PBMC [1]; Patient 1, peptide 50 μg/ml) of the same substance?
The value was “* (*: 20-40%)”.

What about the “IFN-γ ELISpot response (raw SFU)” value (PBMC [1]; Patient 2, peptide 50 μg/ml) of the same substance?
The value was 208 SFU.

And the “significant SFU as a percentage” value (PBMC [1]; Patient 2, peptide 50 μg/ml)?
The value was “*** (***: >70%)”.

What about the “IFN-γ ELISpot response (raw SFU)” value (PBMC [1]; Patient 3, peptide 50 μg/ml) of the same substance?
Its value is 34 SFU.

And the “significant SFU as a percentage” value (PBMC [1]; Patient 3, peptide 50 μg/ml)?
Its value is “* (*: 20-40%)”.

What does the source list for EQYQPYPEQQPFMQPL [avenin peptide]?
IFN-γ ELISpot response (raw SFU) (PBMC [2]; patient P1, peptide 1 μg/ml): 0 SFU; IFN-γ ELISpot response (raw SFU) (PBMC [2]; patient P1, peptide 10 μg/ml): 0 SFU; IFN-γ ELISpot response (raw SFU) (PBMC [2]; patient P1, peptide 100 μg/ml): 4 SFU; IFN-γ ELISpot response (raw SFU) (PBMC [2]; patient P2, peptide 1 μg/ml): 0 SFU; IFN-γ ELISpot response (raw SFU) (PBMC [2]; patient P2, peptide 10 μg/ml): 3 SFU; IFN-γ ELISpot response (raw SFU) (PBMC [2]; patient P2, peptide 100 μg/ml): 49 SFU; significant SFU as a percentage of maximal peptide SFU (PBMC [2]; patient P2, peptide 100 μg/ml): *** (***: >70%); IFN-γ ELISpot response (raw SFU) (PBMC [2]; patient P3, peptide 1 μg/ml): 3 SFU; IFN-γ ELISpot response (raw SFU) (PBMC [2]; patient P3, peptide 10 μg/ml): 18 SFU; significant SFU as a percentage of maximal peptide SFU (PBMC [2]; patient P3, peptide 10 μg/ml): * (*: 20-40%); IFN-γ ELISpot response (raw SFU) (PBMC [2]; patient P3, peptide 100 μg/ml): 5 SFU; IFN-γ ELISpot response (raw SFU) (PBMC [2]; patient P11, peptide 1 μg/ml): 3 SFU; IFN-γ ELISpot response (raw SFU) (PBMC [2]; patient P11, peptide 10 μg/ml): 0 SFU; IFN-γ ELISpot response (raw SFU) (PBMC [2]; patient P11, peptide 100 μg/ml): 54 SFU; significant SFU as a percentage of maximal peptide SFU (PBMC [2]; patient P11, peptide 100 μg/ml): *** (***: >70%); IFN-γ ELISpot response (raw SFU) (PBMC [2]; patient P12, peptide 1 μg/ml): 0 SFU; IFN-γ ELISpot response (raw SFU) (PBMC [2]; patient P12, peptide 10 μg/ml): 2 SFU; IFN-γ ELISpot response (raw SFU) (PBMC [2]; patient P12, peptide 100 μg/ml): 31 SFU; significant SFU as a percentage of maximal peptide SFU (PBMC [2]; patient P12, peptide 100 μg/ml): ** (**: 40-70%); IFN-γ ELISpot response (raw SFU) (PBMC [2]; patient P13, peptide 50 μg/ml): 0 SFU; IFN-γ ELISpot response (raw SFU) (PBMC [1]; Patient 1, peptide 50 μg/ml): 19 SFU; significant SFU as a percentage of maximal peptide SFU (PBMC [1]; Patient 1, peptide 50 μg/ml): (^: 5-10%); IFN-γ ELISpot response (raw SFU) (PBMC [1]; Patient 2, peptide 50 μg/ml): 25 SFU; significant SFU as a percentage of maximal peptide SFU (PBMC [1]; Patient 2, peptide 50 μg/ml): ^^ (^^: 10-20%); IFN-γ ELISpot response (raw SFU) (PBMC [1]; Patient 3, peptide 50 μg/ml): 33 SFU; significant SFU as a percentage of maximal peptide SFU (PBMC [1]; Patient 3, peptide 50 μg/ml): * (*: 20-40%)

What does the source list for “EQYQPYPEEQPFMQPL [partially deamidated avenin peptide]”?
IFN-γ ELISpot response (raw SFU) (PBMC [2]; patient P1, peptide 1 μg/ml): 1 SFU; IFN-γ ELISpot response (raw SFU) (PBMC [2]; patient P1, peptide 10 μg/ml): 1 SFU; IFN-γ ELISpot response (raw SFU) (PBMC [2]; patient P1, peptide 100 μg/ml): 2 SFU; IFN-γ ELISpot response (raw SFU) (PBMC [2]; patient P2, peptide 1 μg/ml): 2 SFU; IFN-γ ELISpot response (raw SFU) (PBMC [2]; patient P2, peptide 10 μg/ml): 0 SFU; IFN-γ ELISpot response (raw SFU) (PBMC [2]; patient P2, peptide 100 μg/ml): 27 SFU; significant SFU as a percentage of maximal peptide SFU (PBMC [2]; patient P2, peptide 100 μg/ml): ** (**: 40-70%); IFN-γ ELISpot response (raw SFU) (PBMC [2]; patient P3, peptide 1 μg/ml): 0 SFU; IFN-γ ELISpot response (raw SFU) (PBMC [2]; patient P3, peptide 10 μg/ml): 2 SFU; IFN-γ ELISpot response (raw SFU) (PBMC [2]; patient P3, peptide 100 μg/ml): 2 SFU; IFN-γ ELISpot response (raw SFU) (PBMC [2]; patient P11, peptide 1 μg/ml): 0 SFU; IFN-γ ELISpot response (raw SFU) (PBMC [2]; patient P11, peptide 10 μg/ml): 0 SFU; IFN-γ ELISpot response (raw SFU) (PBMC [2]; patient P11, peptide 100 μg/ml): 1 SFU; IFN-γ ELISpot response (raw SFU) (PBMC [2]; patient P12, peptide 1 μg/ml): 0 SFU; IFN-γ ELISpot response (raw SFU) (PBMC [2]; patient P12, peptide 10 μg/ml): 0 SFU; IFN-γ ELISpot response (raw SFU) (PBMC [2]; patient P12, peptide 100 μg/ml): 0 SFU; IFN-γ ELISpot response (raw SFU) (PBMC [2]; patient P13, peptide 50 μg/ml): 0 SFU

What does the source list for “EQYQPYPEQQQPFLQQQPLE [avenin library peptide]”?
IFN-γ ELISpot response (raw SFU) (PBMC [1]; Patient 1, peptide 50 μg/ml): 25 SFU; significant SFU as a percentage of maximal peptide SFU (PBMC [1]; Patient 1, peptide 50 μg/ml): (^: 5-10%); IFN-γ ELISpot response (raw SFU) (PBMC [1]; Patient 2, peptide 50 μg/ml): 196 SFU; significant SFU as a percentage of maximal peptide SFU (PBMC [1]; Patient 2, peptide 50 μg/ml): *** (***: >70%); IFN-γ ELISpot response (raw SFU) (PBMC [1]; Patient 3, peptide 50 μg/ml): 24 SFU; significant SFU as a percentage of maximal peptide SFU (PBMC [1]; Patient 3, peptide 50 μg/ml): ^^ (^^: 10-20%)
